Measurements: patent publication US11220483B2, “Tetrahydro-benzo[d]azepine derivatives as GPR120 modulators” (CALDAN THERAPEUTICS LIMITED, priority 2018, dated 2022)

Target: T1, human GPR120 (Homo sapiens, UniProt Q5NUL3)
T1 construct: expressed in transfected cells; host or cells: HEK293T, transient transfection with PEI
T1 sequence (Q5NUL3 1-361): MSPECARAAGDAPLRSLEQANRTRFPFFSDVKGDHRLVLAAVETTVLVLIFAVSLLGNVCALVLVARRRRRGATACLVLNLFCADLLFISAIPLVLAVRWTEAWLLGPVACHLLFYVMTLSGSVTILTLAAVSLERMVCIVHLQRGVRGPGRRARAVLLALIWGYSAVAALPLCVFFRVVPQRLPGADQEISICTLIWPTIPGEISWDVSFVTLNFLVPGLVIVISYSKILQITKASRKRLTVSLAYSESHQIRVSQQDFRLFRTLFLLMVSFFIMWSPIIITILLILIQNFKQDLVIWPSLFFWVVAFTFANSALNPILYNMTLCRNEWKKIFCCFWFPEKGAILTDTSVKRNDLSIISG
Experiment: Human GPR120-β Arrestin 2 BRET agonist assay
Type: cell-based
Conditions: HEK293T cells transiently co-expressing hGPR120-eYFP and β-arrestin 2-RLuc; BRET normalised to DMSO (0%) and TUG-891 (100%); read-out: hGPR120 pEC50 (converted)
Method: pEC50 data was obtained by the following procedure:
Human GPR120-β Arrestin 2 Bio-Luminescence Resonance Energy Transfer (BRET) Agonist Assay Procedure
HEK293T cells were cultured in growth media composed of DMEM L-glutamine media supplemented with 10% (v:v) fetal bovine serum (FBS) and 1% (v:v) 10,000 units penicillin/10 mgml^−1 streptomycin at 37° C., 5% CO2. HEK293T cells transiently co-expressing human GPR120 […] and b-arrestin 2 were generated by transfection with plasmids encoding a construct of hGPR120 […] fused at its C terminal with enhanced yellow fluorescent protein (eYFP), and another encoding β-arrestin 2 fused to Renilla luciferase (RLuc), using Polyethylenimine (PEI) as the transfection reagent.
Transfected cells were cryopreserved in batches for consistency between replicate assays. Twenty-four hours post transfection, cells were harvested with non-enzymatic cell dissociation buffer and re-suspended in DMEM medium supplemented with 10% DMSO and 10% FBS before being transferred first to −80° C. overnight and then to liquid nitrogen for long-term storage. On the day prior to the assay, cells were thawed at 37° C. and re-suspended in growth media. A 96 well white opaque bottom microtitre plate was then seeded with 40,000 cells in a volume of 100 μl growth media per well and seeded plates were then incubated overnight at 37° C., 5% CO2. On the day of the BRET experiment, cells were washed twice with BRET assay buffer (Hanks balanced salt solution (HBSS) supplemented with 10 mM HEPES (pH 7.4)), then 80 μl per well of BRET assay buffer was added before the plate was incubated for 30 minutes at 37° C., 5% CO2. Then, Renilla luciferase substrate coelenterazine h (5 μM) was added to the cells and incubated at 37° C. for 10 minutes before the addition of GPR120 agonist (TUG-891) or test compound for a further 5 minutes at 37° C.
Bio-luminescence at λ 535 nm and λ 475 nm was then measured with a Pherastar FsX instrument, and the λ 535/λ 475 ratio of bio-luminescence was then used to calculate a BRET value. hGPR120 agonist potency values (pEC50) were calculated by normalising the BRET values to the DMSO vehicle (0% control) and TUG-891 (100% control) and then fitting the normalised data to a 3-parameter concentration-response curve.

EC50 | SMILES
1000 nM | COc1ccc(Cl)cc1N1CCc2cc(CCC(=O)O)ccc2C1 [Compound 29, 3-(2-(5-chloro-2-methoxyphenyl)-1,2,3,4-tetrahydroisoquinolin-6-yl)propanoic acid]
1580 nM | Cc1cc(C)cc(N2CCc3ccc(CCC(=O)O)cc3C2)c1 [Compound 30, 3-(2-(3,5-dimethylphenyl)-1,2,3,4-tetrahydroisoquinolin-7-yl)propanoic Acid]
1260 nM | O=C(O)CCc1ccc2c(c1)CN(c1cc(OC(F)(F)F)ccc1F)CC2 [Compound 33]
100 nM | O=C(O)C1CC1c1ccc2c(c1)CCN(c1cc(OC(F)(F)F)ccc1F)C2 (stereo not drawn) [Compound 35, 2-(2-(2-fluoro-5-(trifluoromethoxy)phenyl)-1,2,3,4-tetrahydroisoquinolin-6-yl)cyclopropane-1-carboxylic acid]
63.1 nM | O=C(O)C1CC1c1ccc2c(c1)CCN(c1cccc(Oc3ccccc3)c1)C2 (stereo not drawn) [Compound 38, 2-(2-(3-Phenoxyphenyl)-1,2,3,4-tetrahydroisoquinolin-6-yl)cyclopropanecarboxylic Acid]
25.1 nM | O=C(O)CCc1ccc2c(c1)CCN(c1cc(OC(F)(F)F)ccc1F)CC2 [Compound 45, 3-(3-(2-fluoro-5-(trifluoromethoxy)phenyl)-2,3,4,5-tetrahydro-1H-benzo[d]azepin-7-yl)propanoic Acid]
200 nM | CC(C)Oc1ccc(F)c(N2CCc3ccc(CCC(=O)O)cc3CC2)c1 [Compound 48, 3-(3-(2-fluoro-5-isopropoxyphenyl)-2,3,4,5-tetrahydro-1H-benzo[d]azepin-7-yl)propanoic acid]
398 nM | CC(C)Oc1cc(F)cc(N2CCc3ccc(CCC(=O)O)cc3CC2)c1 [Compound 49, 3-(3-(3-fluoro-5-isopropoxyphenyl)-2,3,4,5-tetrahydro-1H-benzo[d]azepin-7-yl)propanoic acid]
25.1 nM | O=C(O)CCc1ccc2c(c1)CCN(c1cc(Oc3ccccc3)ccc1F)CC2 [Compound 50, 3-(3-(2-fluoro-5-phenoxyphenyl)-2,3,4,5-tetrahydro-1H-benzo[d]azepin-7-yl)propanoic acid]
126 nM | O=C(O)C1CC1c1ccc2c(c1)CCN(c1cc(OC(F)(F)F)ccc1F)CC2 (stereo not drawn) [Compound 52, 2-(3-(2-fluoro-5-(trifluoromethoxy)phenyl)-2,3,4,5-tetrahydro-1H-benzo[d]azepin-7-yl)cyclopropanecarboxylic Acid]
100 nM | O=C(O)C1CC1c1ccc2c(c1)CCN(c1cc(OC3CCC3)ccc1F)CC2 (stereo not drawn) [Compound 53]
200 nM | O=C(O)CCc1ccc2c(c1)CCCN(c1cc(OC(F)(F)F)ccc1F)C2 [Compound 54, 3-(2-(2-Fluoro-5-(trifluoromethoxy)phenyl)-2,3,4,5-tetrahydro-1H-benzo[c]azepin-7-yl)propanoic Acid]

The next lines start with the compound.

SMILES | EC50
COc1cc(Cl)cc(N2CCc3ccc(CCC(=O)O)cc3C2)c1 [Compound 31, 3-(2-(3-chloro-5-methoxyphenyl)-1,2,3,4-tetrahydroisoquinolin-7-yl)propanoic acid] | 2510 nM
O=C(O)C1CC1c1ccc2c(c1)CCN(c1cc(OC3CCC3)cc(F)c1F)C2 (stereo not drawn) [Compound 36, 2-(2-(5-cyclobutoxy-2,3-difluorophenyl)-1,2,3,4-tetrahydroisoquinolin-6-yl)cyclopropane-1-carboxylic acid] | 100 nM
O=C(O)C1CC1c1ccc2c(c1)CCN(c1nc(OC3CCC3)ccc1F)C2 (stereo not drawn) [Compound 37, 2-(2-(6-cyclobutoxy-3-fluoropyridin-2-yl)-1,2,3,4-tetrahydroisoquinolin-6-yl)cyclopropane-1-carboxylic acid] | 39.8 nM
O=C(O)CCc1cc2c(cc1F)CN(c1cc(OC3CCC3)ccc1F)CC2 [Compound 39, 3-(2-(5-cyclobutoxy-2-fluorophenyl)-7-fluoro-1,2,3,4-tetrahydroisoquinolin-6-yl)propanoic Acid] | 63.1 nM
O=C(O)CCc1cc(F)c2c(c1)CCN(c1cc(OC(F)(F)F)ccc1F)C2 [Compound 40, 3-(8-fluoro-2-(2-fluoro-5-(trfluoromethoxy)phenyl)-1,2,3,4-tetrahydroisoquinolin-6-yl)propanoic acid] | 31.6 nM
O=C(O)CCc1cc(F)c2c(c1)CCN(c1cccc(Oc3ccccc3)c1)C2 [Compound 41, 3-(8-fluoro-2-(3-phenoxyphenyl)-1,2,3,4-tetrahydroisoquinolin-6-yl)propanoic acid] | 31.6 nM
O=C(O)CCc1cc2c(cc1F)CN(c1cc(F)cc(OC3CCC3)c1)CC2 [Compound 42, 3-(2-(3-Cyclobutoxy-5-fluorophenyl)-7-fluoro-1,2,3,4-tetrahydroisoquinolin-6-yl)propanoic Acid] | 316 nM
O=C(O)CCc1ccc2c(c1)CCN(c1cc(Cl)cc(OC3CCC3)c1)C2 [Compound 43, 3-(2-(3-chloro-5-cyclobutoxyphenyl)-1,2,3,4-tetrahydroisoquinolin-6-yl)propanoic acid] | 20 nM
O=C(O)CCc1ccc2c(c1)CCN(c1nc(OC3CCC3)c(F)cc1F)C2 [Compound 44, 3-(2-(6-Cyclobutoxy-3,5-difluoropyridin-2-yl)-1,2,3,4-tetrahydroisoquinolin-6-yl)propanoic Acid] | 25.1 nM
O=C(O)CCc1ccc2c(c1)CCN(c1cc(OC3CCC3)ccc1F)CC2 [Compound 46, 3-(3-(5-cyclobutoxy-2-fluorophenyl)-2,3,4,5-tetrahydro-1H-benzo[d]azepin-7-yl)propanoic acid] | 79.4 nM
O=C(O)CCc1ccc2c(c1)CCN(c1cc(OC3CC3)ccc1F)CC2 [Compound 47, 3-(3-(5-cyclopropoxy-2-fluorophenyl)-2,3,4,5-tetrahydro-1H-benzo[d]azepin-7-yl)propanoic acid] | 158 nM
C[C@H](Cc1ccc2c(c1)CCN(c1cc(OC(F)(F)F)ccc1F)CC2)C(=O)O [Compound 51, (R)-3-(3-(2-fluoro-5-(trifluoromethoxy)phenyl)-2,3,4,5-tetrahydro-1H-benzo[d]azepin-7-yl)-2-methylpropanoic Acid] | 501 nM
